Measurements: patent US20150141506A1, “INDANE DIMERS FOR USE IN THE TREATMENT OF AUTOIMMUNE INFLAMMATORY DISEASE” (Venantius Limited, priority 2012, published 2015)

System: IL2 release from Jurkat cells
Experiment: Effect of compounds on IL-2 secretion in T lymphocytes (Jurkat 6.1, anti-CD3/anti-CD28 stimulated, ELISA)
Assay type: cell-based
Conditions: for IL-2 production, absolute values: 30 min pre-treatment, DMSO control 320.67 (plate 2), 338.25 (plate 3); for IL-2 production, absolute values / activity at 1 µM / activity at 10 µM: 24 h; for effect on IL2 release, in words: 1 and 10 μM; for activity at 1 µM / activity at 10 µM: Homo sapiens, Jurkat, read-out: IL2 release as percentage of anti-CD3/CD28 stimulated release in presence of DMSO, Mean
Protocol: The T cell line Jurkat 6.1 (ATCC) was used. Cells were pre-treated for 30 min with 1 μM or 10 μM of the respective compound and then stimulated with plate-bound anti-CD3 (BD Pharmingen) and anti-CD28 (AnCell). DMSO was used as vehicle control. […] After 24 hs the supernatant was collected and IL-2 secretion was measured by ELISA.
Compounds were prepared by dissolution in DMSO to yield final concentrations of 1 and 10 μg/ml

| Structure (SMILES) | IL-2 production, absolute values (compound 1 uM) | IL-2 production, absolute values (compound 10 uM) | effect on IL2 release, in words | activity at 1 µM | activity at 10 µM |
| --- | --- | --- | --- | --- | --- |
| COC(=O)c1ccc(C[C@]2(C3=Cc4ccccc4C3)Cc3ccccc3[C@@H]2O)cc1 [Compound 10, methyl 4-(((1R,2R)-1-hydroxy-2,3-dihydro-1H,1′H-[2,2′-biinden]-2-yl)methyl)benzoate] | 185.56 pg/mL | – | – | – | – |
| CCOC(=O)c1ccc(C[C@]2(C3=Cc4ccccc4C3)Cc3ccccc3[C@@H]2O)cc1 [Compound 11, ethyl 4-(((1R,2R)-1-hydroxy-2,3-dihydro-1H,1′H-[2,2′-biinden]-2-yl)methyl)benzoate] | 272.22 pg/mL | 105.11 pg/mL | – | – | – |
| CCCOC(=O)c1ccc(C[C@]2(C3=Cc4ccccc4C3)Cc3ccccc3[C@@H]2O)cc1 [Compound 12, propyl 4-(((1R,2R)-1-hydroxy-2,3-dihydro-1H,1′H-[2,2′-biinden]-2-yl)methyl)benzoate] | 240.22 pg/mL | 132.44 pg/mL | – | – | – |
| NC(=O)c1ccc(C[C@]2(C3=Cc4ccccc4C3)Cc3ccccc3[C@@H]2O)cc1 [Compound 13, 4-{[(1′R,2′R)-1′-hydroxy-1′,3′-dihydro-1H,2′H-2,2′-biinden-2′-yl]methyl}benzamide] | 276.78 pg/mL | 151.78 pg/mL | – | – | – |
| O=C(NCCO)c1ccc(C[C@]2(C3=Cc4ccccc4C3)Cc3ccccc3[C@@H]2O)cc1 [Compound 14, 4-{[(1′R,2′R)-1′-hydroxy-1′,3′-dihydro-1H,2′H-2,2′-biinden-2′-yl]methyl}-N-(2-hydroxyethyl)benzamide] | 214.44 pg/mL | 146.44 pg/mL | – | – | – |
| CNC(=O)c1ccc(C[C@]2(C3=Cc4ccccc4C3)Cc3ccccc3[C@@H]2O)cc1 [Compound 15, 4-{[(1′R,2′R)-1′-hydroxy-1′,3′-dihydro-1H,2′H-2,2′-biinden-2′-yl]methyl}-N-methylbenzamide] | 207.78 pg/mL | 113.67 pg/mL | – | – | – |
| CN(C)C(=O)c1ccc(C[C@]2(C3=Cc4ccccc4C3)Cc3ccccc3[C@@H]2O)cc1 [Compound 16, 4-{[(1′R,2′R)-1′-hydroxy-1′,3′-dihydro-1H,2′H-2,2′-biinden-2′-yl]methyl}-N,N-dimethylbenzamide] | 243.00 pg/mL | 171.78 pg/mL | – | – | – |
| COC(=O)c1ccc(C[C@@]2(C3=Cc4ccccc4C3)Cc3ccccc3[C@H]2O)cc1 [Compound 17, methyl 4-(((1S,2S)-1-hydroxy-2,3-dihydro-1H,1′H-[2,2′-biinden]-2-yl)methyl)benzoate] | 168.44 pg/mL | – | – | – | – |
| CCOC(=O)c1ccc(C[C@@]2(C3=Cc4ccccc4C3)Cc3ccccc3[C@H]2O)cc1 [Compound 18, ethyl 4-(((1S,2S)-1-hydroxy-2,3-dihydro-1H,1′H-[2,2′-biinden]-2-yl)methyl)benzoate] | 190.78 pg/mL | 79.56 pg/mL | – | – | – |
| CCCOC(=O)c1ccc(C[C@@]2(C3=Cc4ccccc4C3)Cc3ccccc3[C@H]2O)cc1 [Compound 19, propyl 4-(((1S,2S)-1-hydroxy-2,3-dihydro-1H,1′H-[2,2′-biinden]-2-yl)methyl)benzoate] | 174.44 pg/mL | 81.00 pg/mL | – | – | – |
| NC(=O)c1ccc(C[C@@]2(C3=Cc4ccccc4C3)Cc3ccccc3[C@H]2O)cc1 [Compound 20, 4-{[(1′S,2′S)-1′-hydroxy-1′,3′-dihydro-1H,2′H-2,2′-biinden-2′-yl]methyl}benzamide] | 174.11 pg/mL | 141.78 pg/mL | – | – | – |
| O=C(NCCO)c1ccc(C[C@@]2(C3=Cc4ccccc4C3)Cc3ccccc3[C@H]2O)cc1 [Compound 21, 4-{[(1′S,2′S)-1′-hydroxy-1′,3′-dihydro-1H,2′H-2,2′-biinden-2′-yl]methyl}-N-(2-hydroxyethyl)benzamide] | 210.89 pg/mL | 137.78 pg/mL | – | – | – |
| CNC(=O)c1ccc(C[C@@]2(C3=Cc4ccccc4C3)Cc3ccccc3[C@H]2O)cc1 [Compound 22, 4-{[(1′S,2′S)-1′-hydroxy-1′,3′-dihydro-1H,2′H-2,2′-biinden-2′-yl]methyl}-N-methylbenzamide] | 198.56 pg/mL | 113.33 pg/mL | – | – | – |
| CN(C)C(=O)c1ccc(C[C@@]2(C3=Cc4ccccc4C3)Cc3ccccc3[C@H]2O)cc1 [Compound 23, 4-{[(1′S,2′S)-1′-hydroxy-1′,3′-dihydro-1H,2′H-2,2′-biinden-2′-yl]methyl}-N,N-dimethylbenzamide] | 191.44 pg/mL | 193.56 pg/mL | – | – | – |
| CC(C)C[C@H](N)C(=O)O[C@H]1c2ccccc2C[C@]1(Cc1ccc(C(=O)O)cc1)C1=Cc2ccccc2C1 [Compound 24, 4-{[(1′R,2′R)-1′-(L-leucyloxy)-1′,3′-dihydro-1H,2′H-2,2′-biinden-2′-yl]methyl}benzoic acid] | 202.13 pg/mL | 149.63 pg/mL | – | – | – |
| CC(C)[C@H](N)C(=O)O[C@H]1c2ccccc2C[C@]1(Cc1ccc(C(=O)O)cc1)C1=Cc2ccccc2C1 [Compound 25, 4-{[(1′R,2′R)-1′-(L-valyloxy)-1′,3′-dihydro-1H,2′H-2,2′-biinden-2′-yl]methyl}benzoic acid] | 208.38 pg/mL | 174.25 pg/mL | – | – | – |
| CC[C@H](C)[C@H](N)C(=O)O[C@H]1c2ccccc2C[C@]1(Cc1ccc(C(=O)O)cc1)C1=Cc2ccccc2C1 [Compound 26, 4-{[(1′R,2′R)-1′-(L-isoleucyloxy)-1′,3′-dihydro-1H,2′H-2,2′-biinden-2′yl]methyl}benzoic acid] | 202.25 pg/mL | 192.63 pg/mL | – | – | – |
| NCC(=O)O[C@H]1c2ccccc2C[C@]1(Cc1ccc(C(=O)O)cc1)C1=Cc2ccccc2C1 [Compound 27, 4-{[(1′R,2′R)-1′-(glycyloxy)-1′,3′-dihydro-1H,2′H-2,2′-biinden-2′-yl]methyl}benzoic acid] | 350.13 pg/mL | 172.88 pg/mL | potentiates release of IL2 | – | – |
| CC(C)C[C@H](N)C(=O)O[C@@H]1c2ccccc2C[C@@]1(Cc1ccc(C(=O)O)cc1)C1=Cc2ccccc2C1 [Compound 28, 4-{[(1′S,2′S)-1′-(L-leucyloxy)-1′,3′-dihydro-1H,2′H-2,2′-biinden-2′-yl]methyl}benzoic acid] | 214.75 pg/mL | 135.63 pg/mL | – | – | – |
| CC(C)[C@H](N)C(=O)O[C@@H]1c2ccccc2C[C@@]1(Cc1ccc(C(=O)O)cc1)C1=Cc2ccccc2C1 [Compound 29, 4-{[(1′S,2′S)-1′-(L-valyloxy)-1′,3′-dihydro-1H,2′H-2,2′-biinden-2′-yl]methyl}benzoic acid] | 220.50 pg/mL | 177.88 pg/mL | – | – | – |
| CC[C@H](C)[C@H](N)C(=O)O[C@@H]1c2ccccc2C[C@@]1(Cc1ccc(C(=O)O)cc1)C1=Cc2ccccc2C1 [Compound 30, 4-{[(1′S,2′S)-1′-(L-isoleucyloxy)-1′,3′-dihydro-1H,2′H-2,2′-biinden-2′-yl]methyl}benzoic acid] | 191.63 pg/mL | 174.50 pg/mL | – | – | – |
| COC(=O)c1ccc(C[C@]2(C3=Cc4ccccc4C3)Cc3ccccc3[C@@H]2OC(=O)[C@@H](N)CC(C)C)cc1 [Compound 32, methyl 4-(((1R,2R)-1-(((S)-2-amino-4-methylpentanoyl)oxy)-2,3-dihydro-1H,1′H-[2,2′-biinden]-2-yl)methyl)benzoate] | 215.25 pg/mL | 74.88 pg/mL | – | 86.2% | 40.8% |
| CCOC(=O)c1ccc(C[C@]2(C3=Cc4ccccc4C3)Cc3ccccc3[C@@H]2OC(=O)[C@@H](N)CC(C)C)cc1 [Compound 33, ethyl 4-(((1R,2R)-1-(((S)-2-amino-4-methylpentanoyl)oxy)-2,3-dihydro-1H,1′H-[2,2′-biinden]-2-yl)methyl)benzoate] | 186.25 pg/mL | 74.38 pg/mL | – | 89.4% | 43.6% |
| CCCOC(=O)c1ccc(C[C@]2(C3=Cc4ccccc4C3)Cc3ccccc3[C@@H]2OC(=O)[C@@H](N)CC(C)C)cc1 [Compound 34, propyl 4-(((1R,2R)-1-(((S)-2-amino-4-methylpentanoyl)oxy)-2,3-dihydro-1H,1′H-[2,2′-biinden]-2-yl)methyl)benzoate] | 173.25 pg/mL | 71.38 pg/mL | – | 95.8% | 51.5% |
| CC(C)C[C@H](N)C(=O)O[C@H]1c2ccccc2C[C@]1(Cc1ccc(C(N)=O)cc1)C1=Cc2ccccc2C1 [Compound 35, (1R,2R)-2-(4-carbamoylbenzyl)-2,3-dihydro-1H,1′H-2,2′-biinden-1-yl L-leucinate] | 238.88 pg/mL | 189.38 pg/mL | inactive | 149% | 95.5% |
| CC(C)C[C@H](N)C(=O)O[C@H]1c2ccccc2C[C@]1(Cc1ccc(C(=O)NCCO)cc1)C1=Cc2ccccc2C1 [Compound 36, (1R,2R)-2-{4-[(2-hydroxyethyl)carbamoyl]benzyl}-2,3-dihydro-1H,1′H-2,2′-biinden-1-yl L-leucinate] | 207.38 pg/mL | 138.13 pg/mL | – | 96% | 56.3% |
